{"source": "patent US20220218831A1", "about": "“DEGRADATION OF AURORA KINASE (AURK) BY CONJUGATION OF AURK INHIBITORS WITH E3 LIGASE LIGAND” (Nemucore Medical Innovations, Inc., priority 2019, published 2022)", "assay": "Combination of the free target ligand of Formula II (GSK-1070916) with JQ1 (FIG. 3)", "conditions": "GSK-1070916 combined with JQ1; FIG. 3 legend, no model or method printed"}
{"smiles": "CCn1cc(-c2ccnc3[nH]c(-c4cccc(CN(C)C)c4)cc23)c(-c2ccc(NC(=O)N(C)C)cc2)n1", "note": "[GSK-1070916]", "values": [{"measurement": "effect of combination with JQ1", "result": "synergistic effect"}]}
